# Where “and” joins values, the source holds several entries; their conditions need not be identical. Identical values can stand only once.
# Tests used:
# [1] = Phase 2 clinical trial of pembrolizumab plus platinum doublet chemotherapy and concurrent radiotherapy: grade ≥3 pneumonitis and adverse events; assay type: in vivo, human; conditions: pembrolizumab plus CCRT; for Grade ≥3 pneumonitis (all cause), % [90% CI]: all enrolled patients, data cutoff Jan. 3, 2020
# Source text: (§1) FIG. 1 illustrate a schema of a clinical phase 2 study of pembrolizumab plus platinum doublet chemotherapy and concurrent radiotherapy as first-line therapy for unresectable, locally advanced stage III NSCLC (NSCLC).
# (§2) This is a non-randomized, open label study. FIG. 1 sets forth a schematic of the study. The primary objective is overall response rate (ORR) per response evaluation criteria in solid tumors (RECIST) version 1.1 by blinded independent central review (BICR). Secondary objectives are progression free survival (PFS), overall survival (OS) and safety. Key eligibility criteria are as set forth in FIG. 1 and include Stage IIIA-C, unresectable, locally advanced, pathologically confirmed, previously untreated NSCLC; measurable disease based on RECIST v1.1; eastern cooperative oncology group (ECOG) performance status 0 or 1; adequate pulmonary function; and no prior systemic immunosuppressive therapy within 7 days.
# A secondary primary objective of the study was incidence of grade≥3 pneumonitis, which was assessed in all enrolled patients, regardless of their follow-up duration (see table below). In both cohorts, the rate of grade≥3 pneumonitis was less than 10%. One patient in cohort B had interstitial lung disease; the remaining patients had either pneumonitis or radiation pneumonitis. Incidence of other adverse events was consistent with that reported in other pembrolizumab monotherapy studies in NSCLC. Immune-mediated adverse events and infusion reactions (regardless of attribution to study treatment by the investigator) occurred in 47% of patients in cohort A and 27% in cohort B. 15% of patients in cohort A and 8% in cohort B experienced grade 2-5 immune mediated adverse events or infusion reactions.
# [2] = tested on: unresectable, locally advanced stage III NSCLC; assay: Phase 2 clinical trial of pembrolizumab plus platinum doublet chemotherapy and concurrent radiotherapy: ORR, duration of response, PFS, OS by BICR per RECIST v1.1; assay type: in vivo, human; conditions: pembrolizumab plus CCRT; for 6-mo OS rate / 6-mo PFS rate / Response duration ≥6 month, % / Duration of response, median (range): Kaplan-Meier estimate; for Duration of response, median (range): + = no progressive disease at last assessment; for ORR, % [90% CI]: patients with ≥15 weeks follow up, data cutoff Jan. 3, 2020
# Source text: as §1, §2
# The table below provides ORR and Duration of Response/Efficacy by BICR per RECIST v1.1, patients with ≥15 weeks follow up (Jan. 3, 2020 data cutoff date)
# PFS and OS were assessed in patients with at least 15 weeks follow up. As shown in the table above, at the data cutoff, few patients in either cohort had experienced disease progression or died.
# [3] = Cohort A, N = 112, ≥15 weeks follow up
# [4] = Cohort B, N = 53, ≥15 weeks follow up
substance,measurement,setting,value
"pembrolizumab: monoclonal antibody directed to the PD-1 receptor; KEYTRUDA, Merck and Co., Inc.","Immune-mediated adverse events and infusion reactions, Grades 3-5, %","[1]; Cohort A, N = 112",(15.2) %
same,"Immune-mediated adverse events and infusion reactions, Led to death, %","[1]; Cohort A, N = 112",(3.6) %
same,"Treatment Releated Adverse Events, %","[1]; Cohort A, N = 112",(93.8) %
same,"Treatment Releated Adverse Events, Grade 3-5, %","[1]; Cohort A, N = 112",(64.3) %
same,"Treatment Releated Adverse Events, Led to death, %","[1]; Cohort A, N = 112",(3.6) %
same,"Treatment Releated Adverse Events, Led to discontinuation of any treatment component, %","[1]; Cohort A, N = 112",(28.6) %
same,"Grade ≥3 pneumonitis (all cause), % [90% CI]","[1]; Cohort A, N = 112",(8.0) [4.3-13.6] %
same,"Treatment Releated Adverse Events, %","[1]; Cohort B, N = 73",(87.7) %
same,"Treatment Releated Adverse Events, Grade 3-5, %","[1]; Cohort B, N = 73",(41.1) %
same,"Treatment Releated Adverse Events, Led to discontinuation of any treatment component, %","[1]; Cohort B, N = 73",(12.3) %
same,"Grade ≥3 pneumonitis (all cause), % [90% CI]","[1]; Cohort B, N = 73",(5.5) [1.9-12.1] %
same,"grade 2-5 immune mediated adverse events or infusion reactions, % of patients",[1]; cohort A,15%
same,"grade 2-5 immune mediated adverse events or infusion reactions, % of patients",[1]; cohort B,8%
same,patients with interstitial lung disease (among grade ≥3 pneumonitis),[1]; cohort B,One
same,incidence of adverse events,[1]; compared with CCRT for stage III NSCLC and pembrolizumab monotherapy,consistent with the established toxicity profiles
same,Observed rates of grade ≥3 pneumonitis,[1]; compared with immunotherapy combined with CCRT,within the expected range
same,6-mo OS rate,"[2]; Cohort A, N = 112",87% and 87.2%
same,6-mo PFS rate,"[2]; Cohort A, N = 112",81.4%
same,"Response duration ≥6 month, %","[2]; Cohort A, N = 112",(91.1) %
same,"Duration of response, median (range)","[2]; Cohort A, N = 112",NR (1.6+ to 10.5+)
same,"ORR, % [90% CI]","[2]; Cohort A, N = 112",(67.0) [58.9-74.3] %
same,"Complete response (CR), %",[2]; [3],(2.7) %
same,"No Assessment, %",[2]; [3],(8.9) %
same,"Not evaluable, %",[2]; [3],(2.7) %
same,"PD, %",[2]; [3],(0.9) %
same,"Partial response (PR), %",[2]; [3],(64.3) %
same,6-mo OS rate,"[2]; Cohort B, N = 53",95% and 94.8%
same,6-mo PFS rate,"[2]; Cohort B, N = 53",85.2%
same,"Response duration ≥6 month, %","[2]; Cohort B, N = 53",(100) %
same,"Duration of response, median (range)","[2]; Cohort B, N = 53",NR (1.7+ to 10.5+)
same,"ORR, % [90% CI]","[2]; Cohort B, N = 53",(56.6) [44.4-68.2] %
same,"Complete response (CR), %",[2]; [4],(3.8) %
same,"No Assessment, %",[2]; [4],(9.4) %
same,"Partial response (PR), %",[2]; [4],(52.8) %
same,ORR,[2]; both cohorts,exceeded 50%
same,progression free survival rate at 6 months,"[2]; both cohorts, at least 15 weeks follow up",greater than 80%
same,Median overall survival,"[2]; either cohort, at data cutoff",had not been reached
same,Median progression free survival,"[2]; either cohort, at data cutoff",had not been reached
same,Estimated response duration,[2]; most patients with a response,≥ 6 months
same,antitumor activity,"[2]; patients with unresectable, locally advanced stage III NSCLC",promising antitumor activity

# Reference: patent publication US20230338521A1, “METHODS OF TREATING CANCER USING A COMBINATION OF A PD-1 ANTAGONIST, A CHEMORADIATION THERAPY AND A PARP INHIBITOR” (priority 2020, published 2023)
